In ChEMBL document CHEMBL1143125, “DNA cleavage by novel copper (II) complex and the role of beta-cyclodextrin in promoting cleavage” (Bioorg Med Chem, 2008):

Experiments:
Escherichia coli = experiment: Induction of Escherichia coli pUC19 DNA cleavage assessed as non-cleaved DNA level at 0.714 mM after 12 hrs
DNA = experiment: Binding affinity to calf thymus DNA assessed by fluorescence quenching assay; type: nucleic-acid assay; settings: Bos taurus

Activity (Escherichia coli)	K (DNA)	SMILES
7.4%	30000 L/mol	NC(CCC(=O)Nc1cccc2ccccc12)C(=O)N1CCNCCNCCNCC1 (stereo not drawn)
6.3%	–	OC[C@H]1O[C@@H]2O[C@H]3[C@H](O)[C@@H](O)[C@@H](O[C@H]4[C@H](O)[C@@H](O)[C@@H](O[C@H]5[C@H](O)[C@@H](O)[C@@H](O[C@H]6[C@H](O)[C@@H](O)[C@@H](O[C@H]7[C@H](O)[C@@H](O)[C@@H](O[C@H]8[C@H](O)[C@@H](O)[C@@H](O[C@H]1[C@H](O)[C@H]2O)O[C@@H]8CO)O[C@@H]7CO)O[C@@H]6CO)O[C@@H]5CO)O[C@@H]4CO)O[C@@H]3CO
